Measured values published in patent publication US20140038991A1, “Protein Kinase Inhibitors” (Astar Biotech LLC, priority 2012, published 2014).

Experiments:
[1] = tested on: downstream targets of PI3K/mTOR in T47D (with PIK3CA mutation, breast tumor cell line); assay: Western blot detection of downstream targets of PI3K/mTOR in T47D cells; type: cell-based; settings: read-out: T47D (with PIK3CA mutation, breast tumor cell line), IC50 (nM) (using Westin blot to detect the downstream targets of PI3K/mTOR)
Protocol: a. Harvest Cells and Run Cell Extracts on a SDS-PAGE Gel
Cells were harvested bytrypsinization and centrifugation at 500 rpm for 5 min and the supernatant was removed. Cell pellet was resuspended with appropriate volume of 1× lysis buffer (10× lysis buffer from Cell Signaling Technology, Catalog #9803, Boston, Mass.) containing protease inhibitors (Protease Inhibitor Cocktail Tablets, Roche, cat#11 697 498 001 and PMSF, NaF, Na3VO3, Leupeptin and pepstatin A), then directly sonicated the suspension for 5 seconds. Protein concentration was measured using Pierce BAC protein assay kit (catalog #23227). The protein sample was read with EL800 of Bio-TEK at […] wave length and the concentration was calculated. 60 ug protein of each sample was loaded on an 8-15% SDS-PAGE and run at 120V for an appropriate period till the dye front reached the bottom of the gel. […]
b. Transfer the Protein from the Gel to a Membrane
Placed a cassette using pre-wet Watman paper(bio-rad, catalog #1703932), gel and membrane (PVDF membrane with pre-soak in methanol for 3 min, then equilibrated in transfer buffer for 5 min), and performed the transfer using bio-rad transfer system at 100v for 1.5 hr at cool room.
Removed the membrane from the transfer apparatus and placed it in the blocking buffer [5% non-fat dry milk in 1×TBS-T containing NaCl 8 g, Tris-Cl 2.37 g, TrisBase 0.6 g in 1 liter of water (pH 7.6) and 1 ml of Tween-20]. Incubated the membrane in the blocking buffer on a shaker for 0.5-1 hr at room temperature.
Diluted the primary antibody at 1:1000 using TBS-T containing 5% non-fat dry milk, and incubated the membrane in the primary antibody solution on a shaker overnight at 4° C. Then removed the primary antibody solution, and washed the membrane with 1×TBS-T 3 times for 10 min each time. e. Secondary Antibody, Substrate Addition and Film Explosure
Diluted the second antibody (cell signaling technology cat#7076 anti-mouse IgG, HRP-linked antibody, or cat#7074, anti-rabbit IgG, HRP-linked antibody) at 1:3000 using TBS-T containing 5% non-fat dry milk. Decanted the wash buffer and incubated the membrane in the prepared secondary antibody solution on shaker for 2 hr at room temperature. Decanted the secondary antibody solution and washed thoroughly with 1×TBS-T for 3 times for 10 min each time. Prepared for substrate solution: luminal/enhancer solution mix with stable peroxide solution (Amersham ECL Plus™ Western Blotting Detection Reagents. Cat#: RPN2132). Total amount of substrate solution needed was approximate 2 ml per membrane. Placed the membrane with the protein side up on a flat Saran wrap, and dropped the prepared substrate solution over the membrane, and incubated the membrane for 2 minutes. […]

[2] = tested on: LNCaP (with PTEN-null, prostate tumor cell line); assay: Cell-based viability assay (trypan blue exclusion) in LNCaP cells; settings: 72 hours treatment, read-out: LNCaP (with PTEN-null, prostate tumor cell line), IC50 (nM) (using cell trypan blue exclusion assay to detect the cell viability)
Protocol: 1. Cell-Based Assays: Cells were seeded in 24-well plates with a concentration of 10×10^5 cells/mL/well, and treated with the designated agents in the next day. After 72 hours treatment, cells were harvested and stained using the trypan blue exclusion method and measured using the TC-10™ automated cell counter (Bio-rad).

SMILES	IC50 [1] [nM]	IC50 [2] [nM]
COc1ncc(-c2cc3c(C)nc(N)nc3n([C@H]3CC[C@H](OCCO)CC3)c2=O)cc1NS(=O)(=O)c1ccccc1 [Example 1, N-(5-(2-amino-8-(trans-4-(2-hydroxyethoxy)-cyclohexyl)-4-methyl-7-oxo-7,8-dihydropyrido[2,3-d]pyrimidin-6-yl)-2-methoxypyridin-3-yl)benzenesulfonamide]	12	35
CCS(=O)(=O)Nc1cc(-c2cc3c(C)nc(N)nc3n([C@H]3CC[C@H](OCCO)CC3)c2=O)cnc1OC [Example 3, N-(5-(2-amino-8-(trans-4-(2-hydroxyethoxy)cyclohexyl)-4-methyl-7-oxo-7,8-dihydropyrido [2,3-d]pyrimidin-6-yl)-2-methoxypyridin-3-yl)ethanesulfonamide]	–	140
COc1ncc(-c2cc3c(C)nc(N)nc3n([C@H]3CC[C@H](OCCO)CC3)c2=O)cc1NS(=O)(=O)C1CC1 [Example 4, N-(5-(2-amino-8-(trans-4-(2-hydroxyethoxy)cyclohexyl)-4-methyl-7-oxo-7,8-dihydropyrido[2,3-d]pyrimidin-6-yl)-2-methoxypyridin-3-yl)cyclopropanesulfonamide]	–	130
COc1ncc(-c2cc3c(C)nc(N)nc3n([C@H]3CC[C@H](OCCO)CC3)c2=O)cc1NS(=O)(=O)c1ccc(F)cc1 [Example 5, N-(5-(2-amino-8-(trans-4-(2-hydroxyethoxy)cyclohexyl)-4-methyl-7-oxo-7,8-dihydropyrido[2,3-d]pyrimidin-6-yl)-2-methoxypyridin-3-yl)-4-fluorobenzenesulfonamide]	–	55
COc1ccc(-c2cc3c(C)nc(N)nc3n(C3CCC(OCCO)CC3)c2=O)cn1 (stereo not shown) [PF-1502, reference compound]	85	75

More lines, in order of falling IC50 [2], values ahead:

IC50 [1] [nM]	IC50 [2] [nM]	SMILES
–	150	COc1ncc(-c2cc3c(C)nc(N)nc3n([C@H]3CC[C@H](OCCO)CC3)c2=O)cc1NS(C)(=O)=O [Example 2, N-(5-(2-amino-8-(trans-4-(2-hydroxyethoxy)cyclohexyl)-4-methyl-7-oxo-7,8-dihydropyrido[2,3-d]pyrimidin-6-yl)-2-methoxypyridin-3-yl)methanesulfonamide]
–	60	COc1ncc(-c2cc3c(C)nc(N)nc3n([C@H]3CC[C@H](OCCO)CC3)c2=O)cc1NS(=O)(=O)c1c(F)cccc1F [Example 6, N-(5-(2-amino-8-(trans-4-(2-hydroxyethoxy)cyclohexyl)-4-methyl-7-oxo-7,8-dihydropyrido[2,3-d]pyrimidin-6-yl)-2-methoxypyridin-3-yl)-2,6-difluorobenzenesulfonamide]
15	45	COc1ncc(-c2cc3c(C)nc(N)nc3n([C@H]3CC[C@H](OCCO)CC3)c2=O)cc1NS(=O)(=O)c1ccc(C)cc1 [Example 8, N-(5-(2-amino-8-(trans-4-(2-hydroxyethoxy)cyclohexyl)-4-methyl-7-oxo-7,8-dihydropyrido[2,3-d]pyrimidin-6-yl)-2-methoxypyridin-3-yl)-4-methylbenzenesulfonamide]
12	40	COc1ccc(S(=O)(=O)Nc2cc(-c3cc4c(C)nc(N)nc4n([C@H]4CC[C@H](OCCO)CC4)c3=O)cnc2OC)cc1 [Example 7, N-(5-(2-amino-8-(trans-4-(2-hydroxyethoxy)cyclohexyl)-4-methyl-7-oxo-7,8-dihydropyrido[2,3-d]pyrimidin-6-yl)-2-methoxypyridin-3-yl)-4-methoxybenzenesulfonamide]
